Values after ≈ are worked out from the molar mass of the structure shown.
Legend:
[1] = test system: Staphylococcus aureus; assay: Antimicrobial activity against methicillin-resistant Staphylococcus aureus in iv dosed mouse septicemia model; type: functional; conditions: read-out: PD50
[2] = test system: Staphylococcus aureus; assay: Antimicrobial activity against methicillin-resistant Staphylococcus aureus in mouse septicemia model; type: functional
[3] = test system: Staphylococcus aureus; assay: Antimicrobial activity against methicillin-resistant Staphylococcus aureus by NCCLS method; type: functional
[4] = test system: Escherichia coli; assay: Inhibition of protein translation in Escherichia coli S30 cell extract; type: functional
[5] = Inhibition of protein translation in rabbit reticulocytes; type: functional, cell-based, Oryctolagus cuniculus
[6] = Selectivity index, ratio of IC50 for protein translation inhibition in Escherichia coli S30 cell extract to IC50 for protein translation inhibition in rabbit reticulocytes; type: functional

SMILES | ED50 [1] | MIC [2] | MIC [3] | IC50 [4] | IC50 [5] | Selectivity ratio [6]
CN[C@H](CC(C)C)C(=O)N[C@H]1C(=O)N[C@@H](CC(N)=O)C(=O)N[C@H]2C(=O)N[C@H]3C(=O)N[C@H](C(=O)N[C@H](C(=O)O)c4cc(O)cc(O)c4-c4cc3ccc4O)[C@H](O)c3ccc(c(Cl)c3)Oc3cc2cc(c3O[C@@H]2O[C@H](CO)[C@@H](O)[C@H](O)[C@H]2O[C@H]2C[C@](C)(N)[C@H](O)[C@H](C)O2)Oc2ccc(cc2Cl)[C@H]1O [VANCOMYCIN] | 9.6 mg/kg | 0.8 µg/mL (≈ 0.552 µM) | – | – | – | –
CN(C(=O)C[C@H](CCCCN)NC=O)C1CNC(NC(N)=O)=NC1=O (mixture of isomers) | – | – | > 500 µg/mL | > 500 µM | > 500 µM | –
CN(CC1CNC(NC(N)=O)=NC1=O)C(=O)C[C@@H](N)CCCNC(=N)N (mixture of isomers) | – | – | > 500 µg/mL | 51 µM | 56 µM | 1.1
CCC(=O)NC1=NC(=O)C(N(C)C(=O)C[C@@H](N)CCCNC(=N)N)CN1 (mixture of isomers) | – | – | 16 µg/mL | < 5 µM | < 5 µM | –
CC(=O)NC1=CC(=O)C(N(C)C(=O)C[C@@H](N)CCCNC(=N)N)CN1 (mixture of isomers) | – | – | > 500 µg/mL | > 500 µM | > 500 µM | –
CN(C(=O)C[C@@H](N)CCCN/C(N)=N\O)C1CNC(NC(N)=O)=NC1=O (mixture of isomers) | – | – | 64 µg/mL | 8.2 µM | 23.2 µM | 2.8
CN(C(=O)C[C@@H](N)CCCCCN)C1CNC(NC(N)=O)=NC1=O (mixture of isomers) | – | – | 16 µg/mL | 5 µM | 10 µM | 2
CC(=O)NC(=N)NCCC[C@H](N)CC(=O)N(C)C1CNC(NC(N)=O)=NC1=O (mixture of isomers) | – | – | > 256 µg/mL | 106 µM | – | –
CN(C(=O)C[C@@H](N)C[C@H]1CCNC1)C1CNC(NC(N)=O)=NC1=O (mixture of isomers) | – | – | 64 µg/mL | 2 µM | 0.6 µM | 0.3
CN(C(=O)C[C@@H](N)CCCNC(=N)N)C1CN=C(NC(N)=O)NC1 (mixture of isomers) | – | – | > 256 µg/mL | 121 µM | – | –
CN(C)C(=N)NCCC[C@H](N)CC(=O)N(C)C1CNC(NC(N)=O)=NC1=O (mixture of isomers) | – | – | 64 µg/mL | 4.2 µM | 20.6 µM | 4.9
CN(C)C(=O)NC1=NC(=O)C(N(C)C(=O)C[C@@H](N)CCCNC(=N)N)CN1 (mixture of isomers) | – | – | > 500 µg/mL | 8.8 µM | 19.7 µM | 3.4
CC/N=C(/N)NCCC[C@H](N)CC(=O)N(C)C1CN=C(NC(N)=O)NC1=O (mixture of isomers) | – | – | > 256 µg/mL | 2.4 µM | 27.4 µM | –
CN(C(=O)C[C@@H](N)Cc1ccc(C(=N)N)cc1)C1CNC(NC(N)=O)=NC1=O (mixture of isomers) | – | – | 512 µg/mL | 0.51 µM | 12.3 µM | 8.2
CN(C(=O)C[C@@H](N)CCCNC(=N)N)C1CNC(N2CCNC2=O)=NC1=O (mixture of isomers) | – | – | > 500 µg/mL | > 500 µM | > 500 µM | –
CN(C(=O)C[C@@H](N)c1cccc(NC(=N)N)c1)C1CNC(NC(N)=O)=NC1=O (mixture of isomers) | – | – | 256 µg/mL | 0.15 µM | 1.9 µM | 10
CN(C(=O)C[C@@H](N)CC1CCN(C(=N)N)CC1)C1CNC(NC(N)=O)=NC1=O (mixture of isomers) | 2.4 mg/kg | 16 µg/mL | 16 µg/mL | 0.11 µM | 0.75 µM | 6.8
CN(C(=O)C[C@@H](N)C[C@@H]1CCNC1)C1CNC(NC(N)=O)=NC1=O (mixture of isomers) | – | – | 128 µg/mL | 3.9 µM | 3.4 µM | 0.9
CN(C(=O)C[C@@H](N)CCCN)C1CN=C(NC(N)=O)NC1=O (mixture of isomers) | – | – | 64 µg/mL | 9 µM | < 5 µM | <0.6

SMILES | ED50 [1] | MIC [2] | MIC [3] | IC50 [4] | IC50 [5] | Selectivity ratio [6]
CN1CC(N(C)C(=O)C[C@@H](N)CCCNC(=N)N)C(=O)N=C1NC(N)=O (mixture of isomers) | – | – | > 500 µg/mL | > 500 µM | > 500 µM | –
CC(=O)N(C)C1=NC(=O)C(N(C)C(=O)C[C@@H](N)CCCNC(=N)N)CN1 (mixture of isomers) | – | – | 64 µg/mL | 6.8 µM | 21 µM | 3.1
CN[C@@H](CCCCN)CC(=O)N(C)C1CNC(NC(N)=O)=NC1=O (mixture of isomers) | – | – | 128 µg/mL | 25 µM | 5 µM | 0.2
CN(C(=O)C[C@@H](N)C[C@H]1CCN(C(=N)N)C1)C1CNC(NC(N)=O)=NC1=O (mixture of isomers) | 1.5 mg/kg | 16 µg/mL | 8 µg/mL | 0.17 µM | 0.45 µM | 2.6
CN(C(=O)C[C@@H](N)CCC(=O)NC(=N)N)C1CNC(NC(N)=O)=NC1=O (mixture of isomers) | – | – | > 500 µg/mL | 226 µM | 7 µM | 0.03
CN1C(=O)C(N(C)C(=O)C[C@@H](N)CCCNC(=N)N)CN=C1NC(N)=O (mixture of isomers) | – | – | > 500 µg/mL | > 500 µM | > 500 µM | –
CN(C(=O)C[C@@H](N)CCCNC(N)=O)C1CNC(NC(N)=O)=NC1=O (mixture of isomers) | – | – | > 500 µg/mL | > 500 µM | > 500 µM | –
CN(C(=O)C[C@@H](N)CCCN1CCNC1=N)C1CNC(NC(N)=O)=NC1=O (mixture of isomers) | – | – | 128 µg/mL | 4.2 µM | 35 µM | 8.3
CCN(C(=O)C[C@@H](N)CCCNC(=N)N)C1CNC(NC(N)=O)=NC1=O (mixture of isomers) | – | – | 256 µg/mL | 1.8 µM | 45 µM | 25
CN(C(=O)C[C@@H](N)CCCN=C(N)N)C1CN=C(NC(N)=O)NC1=O (mixture of isomers) | 0.7 mg/kg | 12.8 µg/mL | 8 µg/mL | – | 0.2 µM | 0.67
C/N=C(/N)N1CCC(C[C@H](N)CC(=O)N(C)C2CNC(NC(N)=O)=NC2=O)CC1 (mixture of isomers) | – | – | 64 µg/mL | 3.6 µM | 53 µM | 14.7
CC(=O)NC1=NC(=O)C(N(C)C(=O)C[C@@H](N)CCCNC(=N)N)CN1 (mixture of isomers) | – | – | 8 µg/mL | 0.1 µM | 0.2 µM | 2
C/N=C(/N)NCCC[C@H](N)CC(=O)N(C)C1CN=C(NC(N)=O)NC1=O (mixture of isomers) | 3.3 mg/kg | 32 µg/mL | 8 µg/mL | 0.2 µM | 1.3 µM | 6.5
C/N=C(/NC)NCCC[C@H](N)CC(=O)N(C)C1CNC(NC(N)=O)=NC1=O (mixture of isomers) | – | – | 256 µg/mL | 1.3 µM | 26.3 µM | 20
CN(C(=O)C[C@@H](N)CCCNC(=N)N)c1ccc(NC(N)=O)[nH]c1=O (mixture of isomers) | – | – | > 500 µg/mL | > 500 µM | 56 µM | –
CN(C(=O)C[C@@H](N)C1CCN(C(=N)N)CC1)C1CNC(NC(N)=O)=NC1=O (mixture of isomers) | – | – | 16 µg/mL | 0.18 µM | 0.23 µM | 1.3
CN(C(=O)C[C@@H](N)CCCCN)C1CN=C(NC(N)=O)NC1=O (mixture of isomers) | – | – | 64 µg/mL | 6.5 µM | 39.8 µM | 6
CN(C(=O)C[C@@H](N)CC1CCNCC1)C1CNC(NC(N)=O)=NC1=O (mixture of isomers) | – | – | 64 µg/mL | 6.6 µM | 6.6 µM | 1

Source: ChEMBL document CHEMBL1681741, “SAR studies on dihydropyrimidinone antibiotics” (Bioorg Med Chem Lett, 2011)
